Test results from US5411971A, “N-alkylenepiperidino compounds, their enantiomers and pharmaceutical compositions” (Elf Sanofi, priority 1991, dated 1995).
Where a name gives a salt, the structure may show the parent alone.

What was measured:
[1] = system: substance P binding; test: Antagonism of binding of substance P (rat cortex membranes or IM9 cells, not stated which); conditions: preparation (rat cortex membranes or IM9 lymphoblastic cells) not given; read-out: Ki, antagonises the binding of substance P
[2] = biological target: T1, neurokinin A binding, rat duodenum membranes (Rattus norvegicus, UniProt P16610); test: Antagonism of binding to NKA (neurokinin A), rat duodenum membranes; conditions: read-out: Ki, antagonises the binding of neurokinin A
T1 construct: rat duodenum membranes; from tissue; host or cells: rat duodenum membranes
T1 sequence (P16610 1-390): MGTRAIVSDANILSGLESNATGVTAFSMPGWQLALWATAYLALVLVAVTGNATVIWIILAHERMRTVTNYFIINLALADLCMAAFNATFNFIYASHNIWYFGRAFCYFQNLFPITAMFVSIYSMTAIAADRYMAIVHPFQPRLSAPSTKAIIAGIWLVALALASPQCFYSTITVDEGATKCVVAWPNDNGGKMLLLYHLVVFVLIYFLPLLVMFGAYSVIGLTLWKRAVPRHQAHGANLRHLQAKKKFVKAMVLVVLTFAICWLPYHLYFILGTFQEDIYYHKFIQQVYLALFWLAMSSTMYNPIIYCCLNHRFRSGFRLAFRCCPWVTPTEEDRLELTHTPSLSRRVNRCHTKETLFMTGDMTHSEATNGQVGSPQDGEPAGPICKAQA

[3] = biological target: T2, eledoisin binding, rat membranes (Rattus norvegicus, UniProt P16177); test: Antagonism of binding to eledoisin, rat membranes; conditions: read-out: Ki, antagonises the binding of eledoisin
T2 construct: rat membranes; from tissue; brain cortex inferred from the cited Foster et al. 1988
T2 sequence (P16177 1-452): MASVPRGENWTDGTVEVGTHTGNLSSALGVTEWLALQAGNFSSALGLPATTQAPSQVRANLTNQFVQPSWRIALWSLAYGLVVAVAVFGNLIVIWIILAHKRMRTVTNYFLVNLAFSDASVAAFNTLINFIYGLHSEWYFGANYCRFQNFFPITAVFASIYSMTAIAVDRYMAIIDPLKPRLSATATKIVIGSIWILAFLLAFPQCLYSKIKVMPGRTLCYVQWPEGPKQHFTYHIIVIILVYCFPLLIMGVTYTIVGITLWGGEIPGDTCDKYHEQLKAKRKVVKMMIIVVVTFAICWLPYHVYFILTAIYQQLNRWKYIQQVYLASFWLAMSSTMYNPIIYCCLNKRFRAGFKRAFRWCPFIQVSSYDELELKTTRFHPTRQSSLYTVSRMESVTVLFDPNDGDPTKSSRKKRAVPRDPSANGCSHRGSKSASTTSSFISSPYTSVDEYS
From the text: Foster et al., Br. J. Pharmacol., 1988, 94, 602-608.
Eledoisin is a peptide of batrachian origin which is equivalent to neurokinin B.

**Q.** `O=C(NCC(CCN1CCC(Sc2ccccn2)CC1)c1ccc(Cl)c(Cl)c1)c1ccc(Cl)cc1Cl` (stereo not drawn) [Compound 4] was tested. Which Ki [1] did it give?
**A.** 0.041 µM

**Q.** How did the Ki [2] turn out when `CC(=O)N(c1ccccc1)C1CCN(CCC(CN(C)C(=O)c2ccccc2)c2ccc(Cl)c(Cl)c2)CC1` (stereo not drawn) [Compound 8, N-[4-(N'-4-Acetylanilino-1-piperidinyl)-2-(3,4-dichlorophenyl)butyl]-N-methylbenzamide hydrochloride] was run?
**A.** 0.0055 µM

**Q.** With `O=C(NCC(CCN1CCC(Nc2ccccc2)CC1)c1ccc(Cl)c(Cl)c1)c1ccc(F)c2ccccc12` (stereo not drawn) [Compound 9] as the compound, how does the Ki [3] read?
**A.** 0.4 µM
